{"source": "paper PMC9402538", "about": "“Rational design of a sensitivity-enhanced tracer for discovering efficient APC–Asef inhibitors” (Nature Communications, 2022)", "key": {"[1]": {"target": "T1, APC–Asef PPI (FLAG-tagged APC (303–876), HA-tagged Asef (170–632)) (Homo sapiens, UniProt P25054)", "T1 construct": "FLAG-tagged APC (303–876) and hemagglutinin (HA)-tagged Asef (170–632) plasmids; expressed in transfected cells; host or cells: HEK293T (lysate treated with compound)", "T1 sequence (P25054 303-876)": "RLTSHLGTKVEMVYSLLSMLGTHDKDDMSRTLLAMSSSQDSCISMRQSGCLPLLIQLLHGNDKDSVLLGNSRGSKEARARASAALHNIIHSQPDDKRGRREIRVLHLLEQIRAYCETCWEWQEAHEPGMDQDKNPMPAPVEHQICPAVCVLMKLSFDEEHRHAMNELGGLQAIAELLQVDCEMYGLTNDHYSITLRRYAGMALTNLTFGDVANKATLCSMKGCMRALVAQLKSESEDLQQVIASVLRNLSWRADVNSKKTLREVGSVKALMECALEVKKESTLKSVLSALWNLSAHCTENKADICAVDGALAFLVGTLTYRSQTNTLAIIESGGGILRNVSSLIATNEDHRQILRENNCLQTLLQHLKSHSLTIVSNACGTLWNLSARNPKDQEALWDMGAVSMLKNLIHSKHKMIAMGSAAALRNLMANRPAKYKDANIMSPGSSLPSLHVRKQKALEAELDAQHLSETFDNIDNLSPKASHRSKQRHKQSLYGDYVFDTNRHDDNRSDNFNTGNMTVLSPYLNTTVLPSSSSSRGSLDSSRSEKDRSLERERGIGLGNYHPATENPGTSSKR", "assay": "Exogenous Co-IP of APC–Asef in drug-treated HEK293T cell lysate", "assay_type": "biochemical", "details": "HEK293T cell lysate, 0.2, 1 and 5 μM, 2 h", "description": "To investigate the effect of MAI-516 on the APC–Asef PPI, we first examined whether MAI-516 could perturb the APC–Asef PPI in cell lysates. HEK293T cells were transiently transfected with FLAG-tagged APC (303–876) and hemagglutinin (HA)-tagged Asef (170–632) plasmids. The cell lysates were harvested several hours after transfection and treated with different concentrations of MAI-203 and MAI-516 for 2 h; then, they were incubated with anti-FLAG® M2 affinity gel (Sigma; A2220) for 3 h at 4 °C."}, "APC W593A, N641A": {"target": "T2, APC W593A, N641A (Homo sapiens, UniProt P25054, N641A/W593A)", "T2 sequence (P25054 303-739 W593A/N641A)": "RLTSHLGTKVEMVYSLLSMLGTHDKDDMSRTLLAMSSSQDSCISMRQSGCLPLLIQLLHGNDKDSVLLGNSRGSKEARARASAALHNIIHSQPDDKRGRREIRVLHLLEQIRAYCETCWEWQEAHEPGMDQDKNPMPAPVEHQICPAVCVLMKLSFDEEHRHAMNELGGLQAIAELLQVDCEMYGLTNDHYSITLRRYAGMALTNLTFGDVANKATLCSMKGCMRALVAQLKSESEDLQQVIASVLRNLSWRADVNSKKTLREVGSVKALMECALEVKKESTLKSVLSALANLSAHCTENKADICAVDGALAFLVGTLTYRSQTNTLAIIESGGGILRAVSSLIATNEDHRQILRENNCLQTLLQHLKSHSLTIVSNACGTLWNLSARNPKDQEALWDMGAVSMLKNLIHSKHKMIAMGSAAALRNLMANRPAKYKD", "assay": "ITC assay, APC W593A, N641A double mutant", "assay_type": "binding", "description": "(§1) ITC experiments were performed using a MicroCal ITC200 calorimeter (Malvern Panalytical Ltd.). APC protein and peptide inhibitors were diluted with buffer containing 50 mM HEPES pH 7.5, 300 mM NaCl and 1 mM EDTA. The cells were loaded with APC proteins at 10–20 μM. All injections were performed using an initial injection of 0.2 μL followed by 19 injections of 2 μL at 100–200 μM. All measurements were carried out at 30 °C. The data were analyzed using a single-site binding model within MicroCal ITC200 analysis software to generate the stoichiometry (N), enthalpy changes (ΔH), entropy changes (ΔS), and the association constant (K) of binding. The changes in free energy (ΔG) were calculated (ΔG = ΔH-TΔS)."}, "APC N641A": {"target": "T3, APC N641A (Homo sapiens, UniProt P25054, N641A)", "T3 sequence (P25054 303-739 N641A)": "T2 sequence (P25054 303-739 W593A/N641A) with A291W", "assay": "ITC assay, APC N641A mutant", "assay_type": "binding", "description": "as §1"}, "APC W593A": {"target": "T4, APC W593A (Homo sapiens, UniProt P25054, W593A)", "T4 sequence (P25054 303-739 W593A)": "T2 sequence (P25054 303-739 W593A/N641A) with A339N", "assay": "ITC assay, APC W593A mutant", "assay_type": "binding", "description": "as §1"}}, "note": "Residue numbers refer to the chain shown, from its start. Where a SMILES comes first, the peptide text is derived from it. The star is where a group is joined. Benzoyl(4-OMe) = COc1ccc(C(=O)*)cc1", "data": [{"smiles": "COc1ccc(C(=O)N[C@@H](C)C(=O)NCC(=O)N[C@@H](CCC(=O)O)C(=O)N[C@@H](CO)C(=O)N[C@@H](CC(C)C)C(=O)N[C@@H](Cc2ccc(O)cc2)C(=O)N[C@@H](CCC(=O)O)C(N)=O)cc1", "note": "[MAI-516] ({Benzoyl(4-OMe)}-AGESLYE-NH2)", "values": [{"measurement": "effect on APC–Asef PPI (Co-IP)", "setting": "[1]", "result": "dose-dependently attenuate the APC–Asef PPI"}, {"measurement": "reduction of binding affinity vs APC WT", "setting": "APC W593A, N641A", "result": 200, "unit": "fold"}, {"measurement": "-TΔS", "setting": "APC W593A, N641A; 30 °C", "result": 4.9, "unit": "kcal/mol"}, {"measurement": "L/P ratio", "setting": "APC W593A, N641A; 30 °C", "result": 0.77}, {"measurement": "ΔG", "setting": "APC W593A, N641A; 30 °C", "result": -8.44, "unit": "kcal/mol"}, {"measurement": "ΔH", "setting": "APC W593A, N641A; 30 °C", "result": -13.3, "unit": "kcal/mol"}, {"measurement": "Kd", "setting": "APC W593A, N641A; ITC, 30 °C", "result": 860, "unit": "nM"}, {"measurement": "reduction of binding affinity vs APC WT", "setting": "APC N641A", "result": "~2", "unit": "fold"}, {"measurement": "-TΔS", "setting": "APC N641A; 30 °C", "result": 5.45, "unit": "kcal/mol"}, {"measurement": "L/P ratio", "setting": "APC N641A; 30 °C", "result": 0.88}, {"measurement": "ΔG", "setting": "APC N641A; 30 °C", "result": -11, "unit": "kcal/mol"}, {"measurement": "Kd", "setting": "APC N641A; ITC, 30 °C", "result": 12, "unit": "nM"}, {"measurement": "reduction of binding affinity vs APC WT", "setting": "APC W593A", "result": "approximately 100 fold"}, {"measurement": "-TΔS", "setting": "APC W593A; 30 °C", "result": 2.63, "unit": "kcal/mol"}, {"measurement": "L/P ratio", "setting": "APC W593A; 30 °C", "result": 0.92}, {"measurement": "ΔG", "setting": "APC W593A; 30 °C", "result": -8.87, "unit": "kcal/mol"}, {"measurement": "ΔH", "setting": "APC W593A; 30 °C", "result": -11.5, "unit": "kcal/mol"}, {"measurement": "Kd", "setting": "APC W593A; ITC, 30 °C", "result": 400, "unit": "nM"}]}]}
